In test [1] the test system is BWF1 mice. To be noted: cited from earlier work.
The test system of test [2] is BWF1 mice. Briefly: survival and clinical disease in BWF1 mice given L-pCons intravenously. Type of test: in vivo. To be noted: 1 mg i.v. monthly from age 10 weeks. How it is done: FIG. 3 provides a graph of data showing the suppression of clinical disease that occurs in BWF1 mice treated monthly from age 10 weeks with 1 mg of L-pCons administered intravenously.
For tolerance induction, ten-to-twelve week-old BWF1 mice received a single i.v. dose of 1 mg of one of the peptides, dissolved in saline, as reported previously (see, e.g. Singh et al., J Clin Invest 1995; 96:2990-6). Controls in selected experiments were either treated with saline or control peptides.
Using 50% mortality times, the lifespan is prolonged 30-32 weeks. […] A similar study has been started with D-pCons administered orally; results are anticipated in 30 weeks. Serum is obtained at regular intervals for anti-DNA testing; urine is tested for proteinuria monthly (when 2+ appears mice are tested weekly), and survival is measured daily.
Since this increase in survival was small (6 weeks), we developed an algorithm based on 435 VH sequence peptides to create an artificial 15-mer peptide containing amino acid sequences which bind to I-Ed (one of the MHC Class II molecules in BWF1) and to be stimulatory for BWF1 T cells—which we called pConsensus or pCons. […] The control artificial 15-mer, pNegative (pNeg) was constructed to bind I-Ed but not stimulate T cells. […]

Test [3] has as its system peripheral blood mononuclear cells from patients with SLE. Briefly: expansion of CD4+ CD25hi T cells in SLE patient cells cultured with peptide for 5 days. Type of test: cell-based, human. To be noted: for expansion of CD4+ CD25hi (Foxp3+) regulatory T cell populations: SLE patient cells in culture, 5 days. How it is done:
In these experiments, pCons and other stimulatory (peptides B and D) peptides and non-stimulatory peptides (peptide A) that are wild peptides from human monoclonal antibodies to DNA were incubated with peripheral blood mononuclear cells from patients with SLE.
In FIGS. 6 and 7, we show data on the ability of L-pCons to mature the CD4+ CD25hiFoxp3+ natural regulatory cells in patients with SLE. In these experiments, pCons and other stimulatory (peptides B and D) peptides and non-stimulatory peptides (peptide A) that are wild peptides from human monoclonal antibodies to DNA were incubated with peripheral blood mononuclear cells from patients with SLE. […] Such cells are thought to be regulatory T cells.
Next, we studied the ability of L-pCons to induce Treg in T cells from the peripheral blood of patients with SLE (36 patients, 32 healthy controls). Stimulatory control peptides B and D are wild peptides from human mAb anti-DNA; peptide A is a nonstimulatory negative control (see, e.g. Kaki et al., Lupus 2004; 13:490-500). […] These expanded cells were regulatory (FIG. 8): they suppressed proliferation and IFNg synthesis by autologous CD4+ CD25− cells in culture. Numbers of CD4+ Foxp3+ T cells were also expanded and silencing of Foxp3 by transfection with specific siRNA for Foxp3 abrogated the suppressive capacity of the induced T reg by ½ (3rd panel, FIG. 8). […] Patients who were anti-DNA negative were unlikely to respond to pCons with expansion of Treg (see, e.g. La Cava et al, Lupus. 2008; 17(5):421-5).

The mark [4] stands for this setting: high dose i.v. tolerogen once a month, BWF1 females.

Read-outs that look alike come from different tables or passages of the source.

FIEWNKLRFRQGLEW [L-pCons]: in the test with BWF1 mice [1] (setting [4]), the “appearance of anti-DNA, anti-phospholipid, and proteinuria” value is on record as “significant delay”; the prolongation of survival was 24 week. Moreover, the prolongs survival with BWF1 mice [1] (started after nephritis and anti-DNA antibodies have appeared) is recorded as 3-4 months. In the test on BWF1 mice [1] (started prior to disease onset), the prolongs survival is 4-5 months. Besides, in the test on BWF1 mice [2], the “appearance of IgG anti-DNA in serum and of nephritis” value is recorded as “significant delay”; the “lifespan prolonged, using 50% mortality times” value was 30-32 weeks. In addition, the “patients showing expansion of CD4+ CD25hi cells to more than the usual 2-3% of peripheral blood MNC” value in test [3] (5 days in culture) is “Thirteen of 23”. Further, the “expansion of CD4+ CD25hi (Foxp3+) regulatory T cell populations” value in test [3] is recorded as “expand significantly”. The “expansion of CD4+ CD25hi (Foxp3+) regulatory T cell populations” value in test [3] (listed as pCons) was “expanded CD4+ CD25hi populations in some patients”.

Source of the values: patent US8492347B2, “Peptide for induction of immune tolerance as treatment for systemic lupus erythematosus” (The Regents of the University of California, priority 2007, dated 2013).
